In patent US20250326744A1, “PIPERAZINE DERIVATIVE OR SALT THEREOF, AND PHARMACEUTICAL COMPOSITION” (priority 2022, published 2025):
Structures can show the parent of a compound that is named as a salt.

Assays:
[1] = tested on: S-3769 strain; assay: Combinational effect with antibacterial agent against Pseudomonas aeruginosa (Test Examples 2 and 4): S-3769 strain with AMK or GM at 1/4 MIC, EC99; assay type: cell-based; conditions: Table 52, Test Example 2, 16 to 20 hours culture, OD595; for EC99, S-3769 strain, AMK: combined with AMK at 1/4 MIC; for EC99, S-3769 strain, GM: combined with GM at 1/4 MIC
Procedure: (§1) The combinational effect of the test compound with the antibacterial agent against Pseudomonas aeruginosa was evaluated.
The […] was used for evaluating the inhibitory ability against MexXY-OprM. AMK or GM was used as the antibacterial agent used in combination.
The S-3769 strain is a clinically isolated strain collected from a domestic medical institution, and is a strain in which the expression level of MexY is accelerated.
(§2) AMK and GM are aminoglycoside-based antibacterial agents, and are drugs that are not discharged outside the bacteria by MexB but are discharged outside the bacteria by MexY For the culture of each Pseudomonas aeruginosa strain, a 96-well plate (amount of culture medium per well: 100 μL) was used, and cation-adjusted Mueller Hinton broth (CAMHB) was used. The inoculation amount of the bacteria was set to 10^4 to 5 CFU/well.
(§3) The mexB (PA) strain and the S-3769 strain were cultured for 16 to 20 hours in a culture medium to which each antibacterial agent and test compounds at various concentrations (0 to 800 μM) were added, and the proliferation of the bacterial strains was evaluated by optical turbidity at 595 nm (OD595). The concentration of the antibacterial agent in the culture medium was set to ¼ MIC.
(§4) The proliferation of bacteria in a case where the test compound and the antibacterial agent were not added was measured, and compared with the proliferation of bacteria in a case where the test compound in a case where the antibacterial agent was added at the concentration of ¼ MIC was contained, and the lowest concentration of the test compound at which the proliferation was inhibited by 99% or more was defined as the drug efflux pump inhibitory ability of the test compound as 99% inhibitory effect concentration (EC99).
(§5) The effect of suppressing the proliferation of each test compound in combination with an antibacterial agent at ¼ MIC for mexB (PA) or the S-3769 strain was evaluated as follows according to the value of EC99. • S: EC99≤12.5 μM • A: 12.5 μM<EC99≤25 μM • B: 25 μM<EC99≤100 μM • C: 100 μM<EC99
(§6) The combinational effect of the test compound with the antibacterial agent against Pseudomonas aeruginosa was evaluated in the same manner as in Test Example 2.

[2] = tested on: mexB (PA) strain; assay: Combinational effect with antibacterial agent against Pseudomonas aeruginosa (Test Examples 2 and 4): mexB (PA) strain with LVFX, TC or AZT at 1/4 MIC, EC99; assay type: cell-based; conditions: Table 52, Test Example 2, 16 to 20 hours culture, OD595; for EC99, mexB (PA), AZT: combined with AZT at 1/4 MIC; for EC99, mexB (PA), LVFX: combined with LVFX at 1/4 MIC; for EC99, mexB (PA), TC: combined with TC at 1/4 MIC
Procedure: as §1
For the evaluation of the inhibitory ability against MexAB-OprM, a mutant strain of Pseudomonas aeruginosa in which MexAB-OprM was expressed as a main drug efflux pump (hereinafter, referred to as a “mexB (PA) strain”) was used. LVFX, TC, or AZT was used as the antibacterial agent used in combination.
The mexB (PA) strain is a strain produced by deleting the genes of MexCD-OprJ, MexEF-OprN, and MexXY in the drug efflux pump of Pseudomonas aeruginosa described in FEMS Microbiology Letters, 2001, Vol. 202, pp. 139 to 143. In the mexB (PA) strain, an expression level of MexB as a drug efflux pump is accelerated.
TC is a tetracycline-based antibacterial agent and is a drug that is discharged outside the bacteria by MexB. AZT is a monobactam-based antibacterial agent and is a drug that is discharged outside the bacteria by MexB.
as §2, §3, §4, §5, §6

Row | SMILES | EC99, S-3769 strain, AMK [1] | EC99, S-3769 strain, GM [1] | EC99, mexB (PA), AZT [2] | EC99, mexB (PA), LVFX [2] | EC99, mexB (PA), TC [2]
1 | N[C@@H](C(=O)N1CCN(Cc2ccccc2OCC(F)(F)F)CC1)C1CCN(CCc2cc(Cl)ccc2-c2ccccc2)CC1 [Example 2, Hydrobromide of (R)-2-amino-2-(1-(2-(4-chloro-[1,1′-biphenyl]-2-yl)ethyl)piperidin-4-yl)-1-(4-(2-(2,2,2-trifluoroethoxy)benzyl)piperazin-1-yl) ethan-1-one] | S (EC99≤12.5 μM) | S (EC99≤12.5 μM) | B (25 μM<EC99≤100 μM) | C (100 μM<EC99) | B (25 μM<EC99≤100 μM)
2 | CCOc1c(Cl)ccc(F)c1CN1CCN(C(=O)[C@H](N)C2CCN(CCc3cc(Cl)ccc3-c3ccccc3)CC2)CC1 [Example 9, Hydrobromide of (R)-2-amino-1-(4-(3-chloro-2-ethoxy-6-fluorobenzyl)piperazin-1-yl)-2-(1-(2-(4-chloro-[1,1′-biphenyl]-2-yl)ethyl)piperidin-4-yl) ethan-1-one] | A (12.5 μM<EC99≤25 μM) | A (12.5 μM<EC99≤25 μM) | B (25 μM<EC99≤100 μM) | C (100 μM<EC99) | B (25 μM<EC99≤100 μM)
3 | N[C@@H](C(=O)N1CCN(Cc2cccc3c2OCCC3)CC1)C1CCN(CCc2cc(Cl)ccc2-c2ccccc2)CC1 [Example 10, Hydrobromide of (R)-2-amino-2-(1-(2-(4-chloro-[1,1′-biphenyl]-2-yl)ethyl)piperidin-4-yl)-1-(4-(chroman-8-ylmethyl)piperazin-1-yl)ethan-1-one] | A (12.5 μM<EC99≤25 μM) | A (12.5 μM<EC99≤25 μM) | A (12.5 μM<EC99≤25 μM) | A (12.5 μM<EC99≤25 μM) | A (12.5 μM<EC99≤25 μM)
4 | N[C@@H](C(=O)N1CCN(Cc2scc3c2OCCO3)CC1)C1CCN(CCc2cc(Cl)ccc2-c2ccccc2)CC1 [Example 11, Hydrobromide of (R)-2-amino-2-(1-(2-(4-chloro-[1,1′-biphenyl]-2-yl)ethyl)piperidin-4-yl)-1-(4-((2,3-dihydrothieno[3,4-b][1,4]dioxin-5-yl)methyl)piperazin-1-yl)ethan-1-one] | B (25 μM<EC99≤100 μM) | A (12.5 μM<EC99≤25 μM) | B (25 μM<EC99≤100 μM) | B (25 μM<EC99≤100 μM) | B (25 μM<EC99≤100 μM)
5 | N[C@@H](C(=O)N1CCN(Cc2c(F)cccc2OCC(F)F)CC1)C1CCN(CCc2cc(Cl)ccc2-c2ccccc2)CC1 [Example 18, Hydrobromide of (R)-2-amino-2-(1-(2-(4-chloro-[1,1′-biphenyl]-2-yl)ethyl)piperidin-4-yl)-1-(4-(2-(2,2-difluoroethoxy)-6-fluorobenzyl)piperazin-1-yl)ethan-1-one] | A (12.5 μM<EC99≤25 μM) | A (12.5 μM<EC99≤25 μM) | B (25 μM<EC99≤100 μM) | B (25 μM<EC99≤100 μM) | B (25 μM<EC99≤100 μM)
6 | CCOc1cccc(F)c1CN1CCN(C(=O)[C@H](N)C2CCN(CCc3ccccc3)CC2)CC1 [Example 114, Hydrochloride of (R)-2-amino-1-(4-(2-ethoxy-6-fluorobenzyl)piperazin-1-yl)-2-(1-phenethylpiperidin-4-yl)ethan-1-one] |  |  | C (100 μM<EC99) | C (100 μM<EC99) | 
7 | COc1ccccc1CN1CCN(C(=O)[C@H](N)C2CCN(CCc3ccc(Cl)s3)CC2)CC1 [Example 134, Hydrochloride of (R)-2-amino-2-(1-(2-(5-chlorothiophen-2-yl)ethyl)piperidin-4-yl)-1-(4-(2-methoxybenzyl)piperazin-1-yl) ethan-1-one] |  |  | C (100 μM<EC99) | C (100 μM<EC99) | 
8 | COc1ccccc1CN1CCN(C(=O)[C@H](N)C2CCN(CCc3cccc(Cl)c3)CC2)CC1 [Example 140, hydrochloride of (R)-2-amino-2-(1-(3-chlorophenethyl)piperidin-4-yl)-1-(4-(2-methoxybenzyl)piperazin-1-yl)ethan-1-one] |  |  | C (100 μM<EC99) | C (100 μM<EC99) | 
9 | O=C(CN1CCN(CCc2ccccc2)CC1)N1CCN(Cc2ccccc2OC(F)F)CC1 [Example 200, hydrochloride of 1-(4-(2-(difluoromethoxy)benzyl)piperazin-1-yl)-2-(4-phenethylpiperazin-1-yl)ethan-1-one] |  |  | B (25 μM<EC99≤100 μM) | B (25 μM<EC99≤100 μM) | 
10 | COc1cccc(F)c1CN1CCN(C(=O)CN2CCN(CCc3ccccc3)CC2)CC1 [Example 215, hydrochloride of 1-(4-(2-fluoro-6-methoxybenzyl)piperazin-1-yl)-2-(4-phenethylpiperazin-1-yl)ethan-1-one] |  |  | A (12.5 μM<EC99≤25 μM) | S (EC99≤12.5 μM) | 
11 | CCOc1ccccc1CN1CCN(C(=O)CN2CCN(CCc3ccccc3)CC2)CC1 [Example 220, Hydrochloride of 1-(4-(2-ethoxybenzyl)piperazin-1-yl)-2-(4-phenethylpiperazin-1-yl) ethan-1-one] |  |  |  | S (EC99≤12.5 μM) | 
12 | COc1ccc(F)c(F)c1CN1CCN(C(=O)CN2CCN(CCc3ccccc3)CC2)CC1 [Example 247, Hydrochloride of 1-(4-(2,3-difluoro-6-methoxybenzyl)piperazin-1-yl)-2-(4-phenethylpiperazin-1-yl)ethan-1-one] |  |  | A (12.5 μM<EC99≤25 μM) | B (25 μM<EC99≤100 μM) | 
13 | COc1ccsc1CN1CCN(C(=O)CN2CCN(CCc3ccccc3)CC2)CC1 [Example 249, Hydrochloride of 1-(4-((3-methoxythiophen-2-yl)methyl)piperazin-1-yl)-2-(4-phenethylpiperazin-1-yl)ethan-1-one] |  |  | C (100 μM<EC99) | C (100 μM<EC99) | 
14 | COc1ccccc1CN1CCN(C(=O)C(C)N2CCN(CCc3ccccc3)CC2)CC1 (stereo not shown) [Example 261, hydrochloride of 1-(4-(2-methoxybenzyl)piperazin-1-yl)-2-(4-phenethylpiperazin-1-yl)propan-1-one] |  |  | A (12.5 μM<EC99≤25 μM) | B (25 μM<EC99≤100 μM) | 
15 | COc1ccccc1CN1CCN(C(=O)CN2CCN(CCC3CCCCC3)CC2)CC1 [Example 275, 2-(4-(2-Cyclohexylethyl)piperazin-1-yl)-1-(4-(2-methoxybenzyl)piperazin-1-yl) ethan-1-one and hydrochloride thereof] |  |  | S (EC99≤12.5 μM) | A (12.5 μM<EC99≤25 μM) | 
16 | COc1ccccc1CN1CCN(C(=O)CN2CCC(C#N)(CCc3ccccc3)CC2)CC1 [Example 401, Hydrochloride of 1-(2-(4-(2-methoxybenzyl)piperazin-1-yl)-2-oxoethyl)-4-phenethylpiperidine-4-carbonitrile] |  |  | B (25 μM<EC99≤100 μM) | C (100 μM<EC99) | 
17 | COc1ccccc1CN1CCN(C(=O)CN2CCC(N(C)Cc3ccccc3)CC2)CC1 [Example 420, hydrochloride of 2-(4-(benzyl(methyl)amino)piperidin-1-yl)-1-(4-(2-methoxybenzyl)piperazin-1-yl)ethan-1-one] |  |  | C (100 μM<EC99) | C (100 μM<EC99) | C (100 μM<EC99)
